Data set [1] deals with Colinus virginianus.
Data set [2] concerns Oryctolagus sp. As to conditions: reproduction developmental; body weight.
For data set [3], the system named is Daphnia magna. The conditions noted are these: chronic/long-term; duration: 21 days; reproduction.
The test system of data set [4] is Rattus norvegicus.
The test system of data set [5] is Bibionidae. The conditions noted are these: chronic/long-term; duration: 28 days; seedling emergence.
The subject of data set [6] is Danio rerio. As to conditions: acute; duration: 96 hours; mortality.
The test system of data set [7] is Apis mellifera. The conditions noted are these: acute; duration: 48 hours; oral; unspecified; mortality.
The subject of data set [8] is Tagia sp. The conditions noted are these: acute; duration: 14 days; mortality.
Data set [9] relates to Aphidius rhopalosiphi. As to the kind of experiment: LR50; higher = less toxic. As to conditions: not reported; mortality.

In brackets after ≈: the same amount, converted by molar mass. Some results are limits rather than exact numbers.

Data on one compound can be found in EPA's ToxValDB 9.5 (doi:10.2903/j.efsa.2010.1716).

A word on the NOAEL: it is the highest tested level that showed no adverse finding.

Take `c1ccc(CNc2ncnc3nc[nH]c23)cc1` [N-Benzyladenine]: the LC50 was greater than 2880 mg/kg-day in [1] (acute, oral, diet, mortality); 32 µg/mL (≈ 142 µM) in data set [6]; greater than 1000 mg/kg in data set [8]. The LD50 in [1] (acute, oral, mortality) was 1600 mg/kg-day; in data set [4] (acute, oral, mortality) it was 1580 mg/kg-day; in [7], greater than 58.7 µg/piece. Further, the results for the NOEC in data set [1] (reproduction developmental), in [3] and in data set [5] were 41.3 mg/kg-day, 4 mg/L and 4.52 mg/L, respectively. This compound also displayed an NOAEL in data set [2] of less than 10 mg/kg-day. The same compound came in with an NOEL in data set [4] (reproduction developmental, body weight) of 30 mg/kg-day. The same compound came in with an LR50 in [9] of 36.2 g/ha.
